Laboratory results as given in patent publication US5134137A, “Cephalosporin antibiotics” (The Upjohn Company, priority 1990, dated 1992).
≈ marks a conversion by molar mass, not a printed value. Read-outs that look alike come from different tables or passages of the source.

Key:
Format in all cases: cell-based
Enterococcus faecalis = assay: MIC, agar dilution, Enterococcus faecalis; settings: strain UC694
Procedure: (§1) Stock solutions of each test antibiotic compound were prepared to have a concentration of 2 mg. of the test compound per milliliter in sterile water of 0.1M ammonium acetate solution. The amount of each compound used was adjusted for base compound activity as calculated from the purity data for the selected batch of compound.
(§2) The dilution procedure described by Washington and Sutter [Manual of Clinical Microbiology, 3rd, Edit. (Lennett, E. H. et al, Eds.), pp. 453-458 (1980), American Society for Microbiology, Washington, D.C.] was modified so that serial concentrations of 128 to 0.0625 microgram/ml. in sterile water was obtained. Then 1.5 ml. aliquots of these test antibiotic dilution mixtures are added to 13.5 molten (50° C.) Mueller-Hinton agar. Each resulting mixture is poured into 15×100 mm, sterile Petri plates and allowed to dry at room temperature overnight.
(§3) Test bacterial cultures are maintained at -70° C. on glass beads. [See R. J. Yancey, Jr. et al, Amer. Jr. of Vet. Research, 48, No. 7, pp. 1050-1053, (1987)]. At least one bacteria-laden bead per culture is dropped into one ml. of brain heart infusion (BHI) broth for overnight culture at 37° C. in 5% V/V carbon dioxide in air atmosphere.
(§4) On the data of assay, 2 to 8 drops of the bacterial broth cultures are transferred to fresh BHI broth (1 ml.) and the mixture is incubated for 4 to 6 hours at 37° C. in a 5% V/V carbon dioxide in air atmosphere. The resulting cultures are then diluted to match a 0.5 MacFarland standard and further diluted 1:20 V/V with sterile saline solution.
(§5) A 0.001 ml. drop of the resulting mixture, containing approximately 10^3 to 10^4 colony forming units (CFU) of each test bacteria organism, is dispensed onto the surface of the test antibiotic compound test plates with a Steer's type replicator. The resulting innoculated plates are incubated 16 to 18 hours at 37° C. with a carbon dioxide atmosphere.
as §1, with “solution” for “solutions”
as §2, with “mm.” for “mm,”
as §2, with “for Microbiology.” for “for Microbiology,”, “15×100 mm.” for “15×100 mm,”
as §3, with “culture” for “cultures”
(§6) On the day of assay, 2 to 8 drops of the bacterial broth cultures are transferred to fresh BHI broth (1 ml.) and the mixture is incubated for 4 to 6 hours at 37° C. in a 5% V/V carbon dioxide in air atmosphere. […]

[1] = system: Bordetella bronchiseptica; assay: MIC, agar dilution, Bordetella bronchiseptica; settings: strain UC6313
Procedure: as §1, with “solution” for “solutions”
as §2, §3, §4, §5, §1
as §2, with “mm.” for “mm,”
as §2, with “for Microbiology.” for “for Microbiology,”, “15×100 mm.” for “15×100 mm,”
as §3, with “culture” for “cultures”
as §6

Escherichia coli = assay: MIC, agar dilution, Escherichia coli
Procedure: as §1, with “solution” for “solutions”
as §2, §3, §4, §5, §1
as §2, with “mm.” for “mm,”
as §2, with “for Microbiology.” for “for Microbiology,”, “15×100 mm.” for “15×100 mm,”
as §3, with “culture” for “cultures”
as §6

Pasteurella hemolytica = assay: MIC (minimum inhibitory concentration), agar dilution, Pasteurella hemolytica
Procedure: as §1, with “solution” for “solutions”
as §2, §3, §4, §5, §1
as §2, with “mm.” for “mm,”
as §2, with “for Microbiology.” for “for Microbiology,”, “15×100 mm.” for “15×100 mm,”
as §3, with “culture” for “cultures”
as §6

Streptococcus agalactiae = assay: MIC, agar dilution, Streptococcus agalactiae
Procedure: as §1, with “solution” for “solutions”
as §2, §3, §4, §5, §1
as §2, with “mm.” for “mm,”
as §2, with “for Microbiology.” for “for Microbiology,”, “15×100 mm.” for “15×100 mm,”
as §3, with “culture” for “cultures”
as §6

Streptococcus bovis = assay: MIC, agar dilution, Streptococcus bovis; settings: strain UC6281
Procedure: as §1, with “solution” for “solutions”
as §2, §3, §4, §5, §1
as §2, with “mm.” for “mm,”
as §2, with “for Microbiology.” for “for Microbiology,”, “15×100 mm.” for “15×100 mm,”
as §3, with “culture” for “cultures”
as §6

Salmonella choleraesuis = assay: MIC, agar dilution, Salmonella choleraesuis
Procedure: as §1, with “solution” for “solutions”
as §2, §3, §4, §5, §1
as §2, with “mm.” for “mm,”
as §2, with “for Microbiology.” for “for Microbiology,”, “15×100 mm.” for “15×100 mm,”
as §3, with “culture” for “cultures”
as §6

[2] = system: Streptococcus dysgalactiae; assay: MIC, agar dilution, Streptococcus dysgalactiae; settings: strain UC251
Procedure: as §1, with “solution” for “solutions”
as §2, §3, §4, §5, §1
as §2, with “mm.” for “mm,”
as §2, with “for Microbiology.” for “for Microbiology,”, “15×100 mm.” for “15×100 mm,”
as §3, with “culture” for “cultures”
as §6

Salmonella typhimurium = assay: MIC, agar dilution, Salmonella typhimurium
Procedure: as §1, with “solution” for “solutions”
as §2, §3, §4, §5, §1
as §2, with “mm.” for “mm,”
as §2, with “for Microbiology.” for “for Microbiology,”, “15×100 mm.” for “15×100 mm,”
as §3, with “culture” for “cultures”
as §6

Pseudomonas aeruginosa = assay: MIC, agar dilution, Pseudomonas aeruginosa; settings: strain ATCC 27853
Procedure: as §1, with “solution” for “solutions”
as §2, §3, §4, §5, §1
as §2, with “mm.” for “mm,”
as §2, with “for Microbiology.” for “for Microbiology,”, “15×100 mm.” for “15×100 mm,”
as §3, with “culture” for “cultures”
as §6

Streptococcus suis = assay: MIC, agar dilution, Streptococcus suis; settings: strain 650-2
Procedure: as §1, with “solution” for “solutions”
as §2, §3, §4, §5, §1
as §2, with “mm.” for “mm,”
as §2, with “for Microbiology.” for “for Microbiology,”, “15×100 mm.” for “15×100 mm,”
as §3, with “culture” for “cultures”
as §6

Micrococcus luteus = assay: MIC, agar dilution, Micrococcus luteus; settings: strain UC130
Procedure: as §1, with “solution” for “solutions”
as §2, §3, §4, §5, §1
as §2, with “mm.” for “mm,”
as §2, with “for Microbiology.” for “for Microbiology,”, “15×100 mm.” for “15×100 mm,”
as §3, with “culture” for “cultures”
as §6

Staphylococcus aureus = assay: MIC, agar dilution, Staphylococcus aureus
Procedure: as §1, with “solution” for “solutions”
as §2, §3, §4, §5, §1
as §2, with “mm.” for “mm,”
as §2, with “for Microbiology.” for “for Microbiology,”, “15×100 mm.” for “15×100 mm,”
as §3, with “culture” for “cultures”
as §6

Streptococcus uberis = assay: MIC, agar dilution, Streptococcus uberis
Procedure: as §1, with “solution” for “solutions”
as §2, §3, §4, §5, §1
as §2, with “mm.” for “mm,”
as §2, with “for Microbiology.” for “for Microbiology,”, “15×100 mm.” for “15×100 mm,”
as §3, with “culture” for “cultures”
as §6

Corynebacterium pyogenes = assay: MIC, agar dilution, Corynebacterium pyogenes; settings: strain 213-2
Procedure: as §1, with “solution” for “solutions”
as §2, §3, §4, §5, §1
as §2, with “mm.” for “mm,”
as §2, with “for Microbiology.” for “for Microbiology,”, “15×100 mm.” for “15×100 mm,”
as §3, with “culture” for “cultures”
as §6

Enterococcus faecium = assay: MIC, agar dilution, Enterococcus faecium; settings: strain UC241
Procedure: as §1, §2, §3, §4, §5
as §1, with “solution” for “solutions”
as §2, with “mm.” for “mm,”
as §2, with “for Microbiology.” for “for Microbiology,”, “15×100 mm.” for “15×100 mm,”
as §3, with “culture” for “cultures”
as §6

Pasteurella multocida = assay: MIC, agar dilution, Pasteurella multocida; settings: strain UC9581
Procedure: as §1, with “solution” for “solutions”
as §2, §3, §4, §5, §1
as §2, with “mm.” for “mm,”
as §2, with “for Microbiology.” for “for Microbiology,”, “15×100 mm.” for “15×100 mm,”
as §3, with “culture” for “cultures”
as §6

CCCCSSCC1=C(C(=O)O)N2C(=O)[C@@H](NC(=O)/C(=N\OC)c3csc(N)n3)[C@H]2SC1 [Example 12]
MIC (Enterococcus faecalis; Enterococcus faecalis, read-out: MIC): > 32 µg/mL
MIC ([1]; Bordetella bronchiseptica, read-out: MIC): > 32 µg/mL
MIC (Escherichia coli; Escherichia coli, strain UC3784, read-out: MIC): 8 µg/mL (≈ 15.5 µM)
MIC (Escherichia coli; Escherichia coli, strain UC6720, read-out: MIC): 16 µg/mL (≈ 30.9 µM)
MIC (Escherichia coli; Escherichia coli, strain UC9670, read-out: MIC): 8 µg/mL (≈ 15.5 µM)
MIC (Pasteurella hemolytica; Pasteurella, strain UC6531, read-out: MIC): 0.5 µg/mL (≈ 0.966 µM)
MIC (Pasteurella hemolytica; Pasteurella, strain UC6532, read-out: MIC): 0.5 µg/mL (≈ 0.966 µM)
MIC (Pasteurella hemolytica; Pasteurella, strain UC9582, read-out: MIC): 0.5 µg/mL (≈ 0.966 µM)
MIC (Streptococcus agalactiae; Streptococcus agalactiae, strain UC3947, read-out: MIC): 2 µg/mL (≈ 3.86 µM)
MIC (Streptococcus agalactiae; Streptococcus agalactiae, strain UC6892, read-out: MIC): > 32 µg/mL
MIC (Streptococcus bovis; Streptococcus equinus, read-out: MIC): > 32 µg/mL
MIC (Salmonella choleraesuis; Salmonella enterica, CHOLERAESUIS / UC6073, strain UC6073, read-out: MIC): 32 µg/mL (≈ 61.8 µM)
MIC (Salmonella choleraesuis; Salmonella enterica, CHOLERAESUIS / UC6077, strain UC6077, read-out: MIC): 32 µg/mL (≈ 61.8 µM)
MIC ([2]; Streptococcus dysgalactiae, read-out: MIC): ≤ 0.06 µg/mL
MIC (Salmonella typhimurium; Salmonella enterica, TYPHIMURIUM / UC6162, strain UC6162, read-out: MIC): 16 µg/mL (≈ 30.9 µM)
MIC (Salmonella typhimurium; Salmonella enterica, TYPHIMURIUM / UC6164, strain UC6164, read-out: MIC): 32 µg/mL (≈ 61.8 µM)
MIC (Pseudomonas aeruginosa; Pseudomonas aeruginosa, ATCC27853, read-out: MIC): > 32 µg/mL
MIC (Streptococcus suis; Streptococcus suis, read-out: MIC): ≤ 0.06 µg/mL
MIC (Micrococcus luteus; Micrococcus luteus, read-out: MIC): ≤ 0.06 µg/mL
MIC (Staphylococcus aureus; Staphylococcus aureus, strain UC6093, read-out: MIC): 4 µg/mL (≈ 7.73 µM)
MIC (Staphylococcus aureus; Staphylococcus aureus, strain UC6097, read-out: MIC): 4 µg/mL (≈ 7.73 µM)
MIC (Staphylococcus aureus; Staphylococcus aureus, strain UC9203, read-out: MIC): 4 µg/mL (≈ 7.73 µM)
MIC (Streptococcus uberis; Streptococcus uberis, strain UC3946, read-out: MIC): 0.13 µg/mL (≈ 0.251 µM)
MIC (Streptococcus uberis; Streptococcus uberis, strain UC6159, read-out: MIC): 8 µg/mL (≈ 15.5 µM)
MIC (Corynebacterium pyogenes; read-out: MIC): 32 µg/mL (≈ 61.8 µM)
MIC (Enterococcus faecium; Enterococcus faecium, read-out: MIC): > 32 µg/mL
MIC (Pasteurella multocida; Pasteurella multocida, read-out: MIC): 8 µg/mL (≈ 15.5 µM)

CCSSCC1=C(C(=O)O)N2C(=O)C(NC(=O)C(=NOC)c3csc(N)n3)C2SC1 (stereo not drawn) [Example 10, 7-[2-(2-amino-1,3-thiazol-4-yl)-2-(methoxyimino)acetamido]-3-ethyldithiomethyl-3-cephem-4-carboxylic acid]
MIC (Enterococcus faecalis): 32 µg/mL (≈ 65.4 µM)
MIC [1]: 16 µg/mL (≈ 32.7 µM)
MIC (Escherichia coli; strain UC3784): 4 µg/mL (≈ 8.17 µM)
MIC (Escherichia coli; strain UC6720): 8 µg/mL (≈ 16.3 µM)
MIC (Escherichia coli; strain UC9670): 4 µg/mL (≈ 8.17 µM)
MIC (Pasteurella hemolytica; strain UC6531): 0.25 µg/mL (≈ 0.511 µM)
MIC (Pasteurella hemolytica; strain UC6532): 0.25 µg/mL (≈ 0.511 µM)
MIC (Pasteurella hemolytica; strain UC9582): 0.5 µg/mL (≈ 1.02 µM)
MIC (Streptococcus agalactiae; strain UC3947): 2 µg/mL (≈ 4.08 µM)
MIC (Streptococcus agalactiae; strain UC6892): > 32 µg/mL
MIC (Streptococcus bovis): > 32 µg/mL
MIC (Salmonella choleraesuis; strain UC6073): 16 µg/mL (≈ 32.7 µM)
MIC (Salmonella choleraesuis; strain UC6077): 32 µg/mL (≈ 65.4 µM)
MIC [2]: ≤ 0.06 µg/mL
MIC (Salmonella typhimurium; strain UC6162): 8 µg/mL (≈ 16.3 µM)
MIC (Salmonella typhimurium; strain UC6164): 8 µg/mL (≈ 16.3 µM)
MIC (Pseudomonas aeruginosa): > 32 µg/mL
MIC (Streptococcus suis): ≤ 0.06 µg/mL
MIC (Micrococcus luteus): 0.5 µg/mL (≈ 1.02 µM)
MIC (Staphylococcus aureus; strain UC6093): 4 µg/mL (≈ 8.17 µM)
MIC (Staphylococcus aureus; strain UC6097): 2 µg/mL (≈ 4.08 µM)
MIC (Staphylococcus aureus; strain UC9203): 2 µg/mL (≈ 4.08 µM)
MIC (Streptococcus uberis; strain UC3946): 0.25 µg/mL (≈ 0.511 µM)
MIC (Streptococcus uberis; strain UC6159): > 32 µg/mL
MIC (Corynebacterium pyogenes): 32 µg/mL (≈ 65.4 µM)
MIC (Enterococcus faecium): 32 µg/mL (≈ 65.4 µM)
MIC (Pasteurella multocida): 4 µg/mL (≈ 8.17 µM)
